37 compounds from patent US20220235065A1 (Epizyme, Inc., priority 2016, published 2022) can be followed below.

A value given as a limit tells only on which side of the number the result lay.

This assay deals with H3K9me2 in MDA-MB-231 cells. As to the kind of experiment: MDA-MB-231 H3K9me2 in-cell western assay. To be noted: Homo sapiens, read-out: EHMT2 ICW (IC50 μM). The assay is classed as cell-based. An outline of the steps: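 MDA-MB-231 cells (3,000/well) exposed to compound for two consecutive 48 h periods at 37 °C, then fixed and stained for H3K9me2, with DRAQ5 as DNA stain and infrared read at 700/800 nm. Percent inhibition was set between DMSO and UNC0638 control wells. IC50 came from triplicate dose–response fits with a four-parameter model, top 100%, bottom 0%.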
Turning to `CNc1cc(C)nc(Nc2ccc(OC)c(-c3[nH]c4cnccc4c3C#N)c2)n1` [Compound 291], the IC50 (commonly the midpoint of a concentration-inhibition curve) fell in the range of 1 to 10 µM. For `CNc1cc(C)nc(Nc2ccc(OC)c(-c3cc4[nH]ccc4c(C#N)n3)c2)n1` [Compound 292], the IC50 was in the range of 0.1 to 1 µM. For the compound `CNc1cc(C)nc(Nc2ccc(OC)c(-c3cc4[nH]ccc4c(CNC(C)=O)n3)c2)n1` [Compound 293], the IC50 is 1 to 10 µM. Regarding `CNC1=Nc2cc(-c3cnc4cc[nH]c4c3)c(OC)cc2C12CCC2` [Compound 294], the IC50 was in the range of 1 to 10 µM.

`CNc1nc2cc(-c3cnc4cc[nH]c4c3)c(OC)cc2n1C` [Compound 295]: the IC50 was 1 to 10 µM. Regarding `CNc1cc(C)nc(Nc2ccc(OC)c(-c3cc4[nH]ccc4c(CN)n3)c2)n1` [Compound 296], the IC50 was in the range of 1 to 10 µM. As to `CNc1cc(C)nc(Nc2ccc(C)c(C(=O)Nc3cn(C)nn3)c2)n1` [Compound 299], the IC50 was greater than 10 µM. In the case of `CNC1=Nc2cc(-c3cc4[nH]ccc4nc3C)c(OC)cc2C12CCC2` [Compound 300] it was 0.1 to 1 µM. Regarding `CNc1cc(C)nc(Nc2ccc(C)c(C(=O)Nc3cn(C)cn3)c2)n1` [Compound 302], the IC50 is greater than 10 µM. Next, `CNc1nc2cc(-c3[nH]c4cnccc4c3C)c(OC)cc2n1C` [Compound 304]: greater than 10 µM; `COc1cc(NC2CCNC2)ccc1-c1[nH]c2cnccc2c1C` (stereo not shown) [Compound 305]: greater than 10 µM; `CNc1cc(C)nc(Nc2ccc(OC)c(-c3nccc(NC)n3)c2)n1` [Compound 306]: greater than 10 µM. With `CNCc1cnn(-c2c(F)ccc(Nc3nc(C)cc(NC)n3)c2F)c1` [Compound 307], the IC50 lay within 0.1 to 1 µM. On to `CNC1=Nc2cc(-c3cc4[nH]ccc4c(C(N)=O)n3)c(OC)cc2C12CCC2` [Compound 308], for which the IC50 is greater than 10 µM.

Consider `COc1cc2c(cc1-c1cc3[nH]ccc3cn1)N=C(NCC(N)=O)C21CCC1` [Compound 309], for which the IC50 was greater than 10 µM.

As to `COc1cc(NC2CCNCC2)ccc1-c1[nH]c2cnccc2c1C` [Compound 310], the IC50 is greater than 10 µM. Consider `CNc1cc(C)nc(Nc2cnc(C)c(-c3cc4ccncc4[nH]3)c2)n1` [Compound 311], for which the IC50 is greater than 10 µM. With `CNCc1ccnc(-c2cc(Nc3nc(C)cc(NC)n3)ccc2OC)c1` [Compound 313], the IC50 fell in the range of 1 to 10 µM. As for `CNC1=Nc2cc(-n3cc(CN4CCC4)cn3)c(OC)cc2C12CCC2` [Compound 314], the IC50 was 0.1 to 1 µM.

For the compound `CNc1cc(C)nc(Nc2ccc(F)c(-n3cc(CN4CCC4)cn3)c2F)n1` [Compound 315], the IC50 was 1 to 10 µM. In the case of `CNc1cc(C)nc(Nc2ccc(OC)c(-c3[nH]c4cnccc4c3CNC(C)=O)c2)n1` [Compound 316], the IC50 is 0.1 to 1 µM.

Turning to `CNCc1cnn(-c2c(OC)ccc(Nc3nc(C)cc(NC)n3)c2F)c1` [Compound 317, N2-(2-fluoro-4-methoxy-3-(4-((methylamino)methyl)-1H-pyrazol-1-yl)phenyl)-N4,6-dimethylpyrimidine-2,4-diamine], the IC50 was less than 0.1 µM. `CNCc1cnn(-c2c(F)ccc(Nc3nc(C)cc(NC)n3)c2OC)c1` [Compound 318]: the IC50 is 0.1 to 1 µM. On to `CNCc1cnn(-c2cc(Nc3nc(C)cc(NC)n3)ccc2Br)c1` [Compound 319], for which the IC50 was less than 0.1 µM. Regarding `CCc1ccc(Nc2nc(C)cc(NC)n2)cc1-n1cc(CNC)cn1` [Compound 320], the IC50 fell in the range of 0.1 to 1 µM. In the case of `CNc1cc(C)nc(Nc2ccc(OC)c(-n3cc(C4CCCN4)cn3)c2)n1` (stereo not shown) [Compound 321] it was less than 0.1 µM; in that of `CNC1=Nc2cc(-n3cc(C4CCCN4)cn3)c(OC)cc2C12CCC2` (stereo not shown) [Compound 322], 0.1 to 1 µM.

For the compound `CNCc1cn(-c2cc(Nc3nc(C)cc(NC)n3)ccc2OC)nc1F` [Compound 323], the half-maximal inhibitory concentration (IC50) lay within 0.1 to 1 µM. Take `CNCc1cc(-c2cc(Nc3nc(C)cc(NC)n3)ccc2OC)on1` [Compound 324]: the 50% inhibitory concentration (IC50) was 1 to 10 µM. With `CNCc1cnn(-c2cc(Nc3nc(C)cc(NC)n3)ccc2C(F)(F)F)c1` [Compound 325], the IC50 is 0.1 to 1 µM. On to `CNC1=Nc2cc(-n3cc(C4CCCN4)cn3)c(Cl)cc2C12CCC2` (stereo not shown) [Compound 326], for which the IC50 was less than 0.1 µM. `CNCc1cnn(-c2c(Cl)ccc(Nc3nc(C)cc(NC)n3)c2Cl)c1` [Compound 327]: the IC50 is less than 0.1 µM. Consider `CNCc1cnn(-c2c(Cl)ccc(Nc3nc(C)cc(NC)n3)c2F)c1` [Compound 328], for which the IC50 is less than 0.1 µM.

Consider `CNCc1cnn(-c2c(F)ccc(Nc3nc(C)cc(NC)n3)c2Cl)c1` [Compound 329], for which the IC50 was less than 0.1 µM.

In the case of `CNc1cc(C)nc(Nc2ccc(Cl)c(-n3cc(C4CCCN4)cn3)c2)n1` (stereo not shown) [Compound 330], the IC50 was less than 0.1 µM. With `CNCc1cc(-c2cc(Nc3nc(C)cc(NC)n3)ccc2OC)no1` [Compound 331], the IC50 was in the range of 0.1 to 1 µM.

Regarding `CNc1cc(C)nc(Nc2ccc(OC)c(-c3cc4[nH]cc(C)c4cn3)c2)n1` [Compound 386], the IC50 was less than 0.1 µM.
